{
  "source": "ChEMBL document CHEMBL1144954",
  "about": "“Synthesis and preliminary evaluation of (R,R)(S,S) 5-(2-(2-[4-(2-[(18)F]fluoroethoxy)phenyl]-1-methylethylamino)-1-hydroxyethyl)-benzene-1,3-diol ([(18)F]FEFE) for the in vivo visualisation and quantification of the beta2-adrenergic receptor status in lung” (Bioorg Med Chem Lett, 2003)",
  "key": {"[1]": {"assay": "Distribution in lung expressed as [18F]- organ uptake in % of injected activity/gram", "assay_type": "ADME, tissue-based, Cavia porcellus", "details": "guinea pig"}, "[2]": {"assay": "Distribution in intestine expressed as [18F]- organ uptake in % of injected activity/gram", "assay_type": "ADME, tissue-based, Cavia porcellus", "details": "guinea pig"}, "[3]": {"assay": "Distribution in brain expressed as [18F]- organ uptake in % of injected activity/gram", "assay_type": "ADME, tissue-based, Cavia porcellus", "details": "guinea pig"}, "[4]": {"assay": "Distribution in blood expressed as [18F]- organ uptake in % of injected activity/gram", "assay_type": "ADME, tissue-based, Cavia porcellus", "details": "guinea pig"}, "[5]": {"target": "Beta-2 adrenergic receptor (Cavia porcellus, UniProt Q8K4Z4)", "sequence (Q8K4Z4 whole entry)": "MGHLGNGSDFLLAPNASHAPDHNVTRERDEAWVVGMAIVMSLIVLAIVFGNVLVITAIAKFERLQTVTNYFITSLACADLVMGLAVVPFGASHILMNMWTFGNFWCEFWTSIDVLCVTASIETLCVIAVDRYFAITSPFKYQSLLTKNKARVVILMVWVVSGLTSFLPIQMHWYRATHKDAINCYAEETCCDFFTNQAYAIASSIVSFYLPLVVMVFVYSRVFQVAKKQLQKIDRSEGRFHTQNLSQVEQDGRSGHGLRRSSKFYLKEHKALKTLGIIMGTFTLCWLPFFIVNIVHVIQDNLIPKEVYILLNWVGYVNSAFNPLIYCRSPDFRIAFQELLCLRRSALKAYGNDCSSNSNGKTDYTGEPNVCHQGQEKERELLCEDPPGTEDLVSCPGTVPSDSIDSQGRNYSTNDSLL", "assay": "In vitro inhibitory concentration Beta-2 adrenergic receptor in Guinea pig trachea"}, "[6]": {"assay": "Distribution in liver expressed as [18F]- organ uptake in % of injected activity/gram", "assay_type": "ADME, tissue-based, Cavia porcellus", "details": "guinea pig"}, "[7]": {"assay": "Distribution in kidney expressed as [18F]- organ uptake in % of injected activity/gram", "assay_type": "ADME, tissue-based, Cavia porcellus", "details": "guinea pig"}, "[8]": {"assay": "Distribution in spleen expressed as [18F]- organ uptake in % of injected activity/gram", "assay_type": "ADME, tissue-based, Cavia porcellus", "details": "guinea pig"}, "[9]": {"assay": "Distribution in heart expressed as [18F]- organ uptake in % of injected activity/gram", "assay_type": "ADME, tissue-based, Cavia porcellus", "details": "guinea pig"}, "[10]": {"assay": "Half-life was measured", "assay_type": "ADME, Cavia porcellus", "details": "guinea pig"}},
  "data": [
    {"smiles": "CC(Cc1ccc(OCCF)cc1)NCC(O)c1cc(O)cc(O)c1", "note": "(stereo not given)", "values": [
      {"measurement": "ID/g", "setting": "[1]", "result": 1.16, "unit": "%"},
      {"measurement": "ID/g", "setting": "[2]", "result": 0.77, "unit": "%"},
      {"measurement": "ID/g", "setting": "[3]", "result": 0.02, "unit": "%"},
      {"measurement": "ID/g", "setting": "[4]", "result": 0.22, "unit": "%"},
      {"measurement": "IC50", "setting": "[5]", "result": 60, "unit": "nM"},
      {"measurement": "ID/g", "setting": "[6]", "result": 0.95, "unit": "%"},
      {"measurement": "ID/g", "setting": "[7]", "result": 0.7, "unit": "%"},
      {"measurement": "ID/g", "setting": "[8]", "result": 0.84, "unit": "%"},
      {"measurement": "ID/g", "setting": "[9]", "result": 0.49, "unit": "%"},
      {"measurement": "half-life", "setting": "[10]", "result": 1.83, "unit": "h"}
    ]}
  ]
}
